From PMC11729362, “Icariside II Preparation from Icariin Separated from Epimedium Herbal Extract Powder by a Special Icariin Glycosidase” (Journal of Microbiology and Biotechnology, 2024)

System: T1, special icariin glycosidase
T1 construct: gene icariin 7-O-glucosidase; native enzyme purified from culture supernatant (methanol precipitation, DEAE-cellulose DE-52); about 75 kDa by SDS-PAGE
Test: Lineweaver-Burk; HPLC and TLC of products and substrate
Assay type: biochemical, Aspergillus sp. y48
Conditions: 45 °C, 9 h reaction, 0.4-2.0 mmol/L icariin; purified free enzyme

- Km: 3.55 mM
Compound: COc1ccc(-c2oc3c(CC=C(C)C)c(O[C@@H]4O[C@H](CO)[C@@H](O)[C@H](O)[C@H]4O)cc(O)c3c(=O)c2O[C@@H]2O[C@@H](C)[C@H](O)[C@@H](O)[C@H]2O)cc1 [icariin]
